Laboratory results published in patent publication US4105668A, “Process for 6-amino-2,2-dimethyl-3-(5-tetrazolyl)penam” (Pfizer Inc., priority 1977, dated 1978).
Converted amounts (≈) assume the structure as drawn.

Assays:
[1] = system: Escherichia coli; experiment: In vitro antibacterial activity (MIC), two-fold serial dilution in Brain-Heart Infusion broth; assay type: cell-based; details: E. coli, overnight
Experimental: (§1) The broth is inoculated with the bacterial culture, and with the test compound, and then it is incubated overnight. On the next day, the test is read visually. The minimum inhibitory concentration (MIC) is the lowest concentration of compound which prevents turbidity, i.e., which prevents growth of the microorganism. In vitro activities against certain pathogenic bacteria area shown in Table I. This in vitro activity makes the compound of value for topical applications, for example, in the form of creams and ointments, and for the sterilization of sickroom and hospital surfaces, equipment and the like. […] This in vivo activity makes this compound suitable for the control of bacterial infections caused by susceptible organisms, in mammals, including man, by both the oral and parenteral mode of administration.

[2] = system: Staphylococcus aureus; experiment: as above; assay type: cell-based; details: S. aureus, overnight
Experimental: as §1

[3] = system: Streptococcus pyogenes; experiment: as above; assay type: cell-based; details: S. pyogenes, overnight
Experimental: as §1

[4] = system: Staphylococcus aureus; experiment: In vivo antibacterial activity, protection of mice against systemic infection (lethal intraperitoneal inoculum); details: infected mice, multiple dosing
[5] = system: Escherichia coli; experiment: as above; details: infected mice, multiple dosing
[6] = system: gram-positive and gram-negative bacteria; experiment: In vitro activity against gram-positive and gram-negative bacteria; assay type: cell-based
Experimental: as §1

[7] = system: Staphylococcus aureus or Escherichia coli; experiment: In vivo antibacterial activity in infected mice (statement in words); details: SC and PO
Experimental: as §1

[8] = Isoelectric point; assay type: physicochemical; details: in water

Compound	MIC [1] [ng/mL]	MIC [2] [ng/mL]	MIC [3] [ng/mL]	Percentage protection S. Aureus ([4]; 6 mg./kg. SC) [%]	Percentage protection S. Aureus ([4]; 12 mg./kg. SC) [%]	Percentage protection S. Aureus ([4]; 25 mg./kg. SC) [%]	Percentage protection S. Aureus ([4]; 50 mg./kg. SC) [%]	Percentage protection E. coli ([5]; 25 mg./kg. SC) [%]	Percentage protection E. coli ([5]; 50 mg./kg. SC) [%]	Percentage protection E. coli ([5]; 200 mg./kg. PO) [%]	activity against a wide variety of gram-positive and gram-negative bacteria [6]	antibacterial activity in vivo [7]	isoelectric point [8] [pH]
CC1(C)S[C@@H]2[C@H](NC(=O)[C@H](N)c3ccc(O)cc3)C(=O)N2[C@H]1c1nn[nH]n1 [6-(D-2-Amino-2-[4-hydroxyphenyl]acetamido)-2,2-dimethyl-3-(5-tetrazolyl)penam]	780 (≈ 2 µM)	6 (≈ 0.0154 µM)	1 (≈ 0.00257 µM)	50	50	70	80	80	100	100	shows activity against a wide variety of gram-positive and gram-negative bacteria	active as an antibacterial agent in vivo	–
CC1(C)S[C@@H]2[C@H](N)C(=O)N2[C@H]1c1nn[nH]n1 [6-amino-2,2-dimethyl-3-(5-tetrazolyl)penam]	–	–	–	–	–	–	–	–	–	–	–	–	~4.1
